The source made the active and inactive calls. The rule behind the calls is not given here.
Columns and labels:
A549 [1] = test: Induction of intracellular ROS generation in human A549 cells by measuring red fluorescence at 0.4 to 1.2 uM incubated for 24 hrs in presence of LED light irradiation at 1.8 mW cm/2 by DHE based fluorescence microscopy analysis; type: functional, cell-based; conditions: dose 0.4-1.2 µM
[2] = Photophysical property of the compound assessed as fluorescence quantum yield; type: physicochemical
[3] = Induction of type-1 ROS generation in tetrahydrofuran assessed as fold increase in DHR123 fluorescence intensity at 0.5 uM followed by LED white light irradiation at 1.8 mWcm/2 for 300 sec by DCFH staining based analysis; type: functional
A549 [4] = test: Inhibition of cell migration in human A549 cells at 0.75 uM preincubated for 12 hrs followed by incubation under dark condition and measured after 48 hrs by wound healing assay; type: functional, cell-based; conditions: time 60.0 hrs
A549 [5] = test: Inhibition of cell migration in human A549 cells assessed as appearance of loose cells at 0.75 uM preincubated for 12 hrs followed by incubation under dark condition and measured after 48 hrs by wound healing assay; type: functional, cell-based; conditions: time 60.0 hrs
[6] = Dark toxicity in human HBE cells assessed as cell viability incubated for 24 hrs in dark by MTT assay; type: cell-based
[7] = Induction of type-1 ROS generation in methanol assessed as generation of O2 at 0.5 uM followed by Xe lamp irradiation for 5 mins by DCFH staining based analysis; type: functional
[8] = Developmental toxicity in wild type AB zebrafish assessed as effect on morphological abnormalities at 1.57 to 50 uM incubated for 72 hrs under dark condition; set-up: species or system Danio rerio; conditions: in vivo, dose 1.57-50 µM
A549 [9] = test: Induction of intracellular ROS generation in human A549 cells by measuring red fluorescence at 0.4 to 1.2 uM incubated for 24 hrs under dark condition by DHE based fluorescence microscopy analysis; type: functional, cell-based; conditions: dose 0.4-1.2 µM
MDA-MB-231 = test: Phototoxicity against human MDA-MB-231 cells assessed as reduction in cell proliferation at 0.156 to 10 uM irradiated with LED light at 1.8 mWcm/2 for 2 hrs and measured after 24 hrs under normoxia condition by MTT assay; type: functional, cell-based; conditions: dose 0.156-10 µM, time 26.0 hrs
A549 [10] = test: Inhibition of cell migration in human A549 cells at 0.75 uM preincubated for 12 hrs followed by LED light irradiation 1.8 mW cm/2 for 2 hrs and measured after 48 hrs by wound healing assay; type: functional, cell-based; conditions: time 62.0 hrs
HepG2 = test: Phototoxicity against human HepG2 cells assessed as reduction in cell proliferation at 0.156 to 10 uM irradiated with LED light at 1.8 mWcm/2 for 2 hrs and measured after 24 hrs under normoxia condition by MTT assay; type: functional, cell-based; conditions: dose 0.156-10 µM, time 26.0 hrs
A549 [11] = test: Inhibition of cell migration in human A549 cells assessed as appearance of blurred cells at 0.75 uM preincubated for 12 hrs followed by LED light irradiation 1.8 mW cm/2 for 2 hrs and measured after 48 hrs by wound healing assay; type: functional, cell-based; conditions: time 62.0 hrs
[12] = Induction of type-1 ROS generation in methanol assessed as generation of OH at 0.5 uM followed by Xe lamp irradiation for 5 mins by DCFH staining based analysis; type: functional
[13] = Induction of type-1 ROS generation in tetrahydrofuran at 0.5 uM followed by LED white light irradiation at 1.8 mWcm/2 for 300 sec by DCFH staining based analysis; type: functional
A549 [14] = test: Phototoxicity against human A549 cells assessed as reduction in cell proliferation at 0.156 to 10 uM irradiated with LED light at 1.8 mWcm/2 for 2 hrs and measured after 24 hrs under normoxia condition by MTT assay; type: functional, cell-based; conditions: dose 0.156-10 µM, time 26.0 hrs
A549 [15] = test: Inhibition of cell migration in human A549 cells assessed as appearance of blurred cells at 0.75 uM preincubated for 12 hrs followed by incubation under dark condition and measured after 48 hrs by wound healing assay; type: functional, cell-based; conditions: time 60.0 hrs
A549 [16] = test: Inhibition of cell migration in human A549 cells assessed as appearance of loose cells at 0.75 uM preincubated for 12 hrs followed by LED light irradiation 1.8 mW cm/2 for 2 hrs and measured after 48 hrs by wound healing assay; type: functional, cell-based; conditions: time 62.0 hrs
MCF7 = test: Phototoxicity against human MCF7 cells assessed as reduction in cell proliferation at 0.156 to 10 uM irradiated with LED light at 1.8 mWcm/2 for 2 hrs and measured after 24 hrs under normoxia condition by MTT assay; type: functional, cell-based; conditions: dose 0.156-10 µM, time 26.0 hrs
[17] = Developmental toxicity in wild type AB zebrafish assessed as effect on morphological abnormalities at 1.57 to 50 uM incubated for 72 hrs followed by LED light irradiation at 1.8 mW cm/2; set-up: species or system Danio rerio; conditions: in vivo, dose 1.57-50 µM
[18] = Induction of type-1 ROS generation in tetrahydrofuran assessed as increase in singlet oxygen production by measuring ABDA absorption peak at 0.5 uM followed by LED white light irradiation at 1.8 mWcm/2 for 300 sec by DCFH staining based analysis; type: functional

SMILES: CCN(CC)c1ccc2cc(C(=O)/C=C/c3ccc4c(c3)CN3CN4Cc4cc(C=O)ccc43)c(=O)oc2c1
- Activity (A549 [1]): Active
- Fluorescence quantum yield [2]: 0.18
- fold change (FC) [3]: 24.1
- inhibition (A549 [4]): Active
- inhibition (A549 [5]): Active
- Activity [6]: Toxic
- Activity [7]: Active
- Activity [8]: Non-toxic
- Activity (A549 [9]): inactive
- Activity (MDA-MB-231): Active
- inhibition (A549 [10]): Active
- Activity (HepG2): Active
- inhibition (A549 [11]): Active
- Activity [12]: Active
- Activity [13]: Active
- Activity (A549 [14]): Active
- inhibition (A549 [15]): Active
- inhibition (A549 [16]): Active
- Activity (MCF7): Active
- Activity [17]: Non-toxic

SMILES: CCN(CC)c1ccc2cc(C(=O)/C=C/c3cc4c(cc3OC)N3Cc5cc(Br)c(OC)cc5N(C4)C3)c(=O)oc2c1
- Fluorescence quantum yield [2]: 0.16
- fold change (FC) [3]: 17.4
- Activity [6]: Toxic
- Activity [13]: Active
- Activity [18]: inactive
